Data: patent US12599592B2, “Therapeutic small molecules for treatment of pulmonary hypertension” (UNIVERSITY OF PITTSBURGH—OF THE COMMONWEALTH SYSTEM OF …, priority 2020, dated 2026)

Experiments:
[1] = tested on: SU5416-hypoxic pulmonary arterial hypertension rats; assay: SU5416-hypoxia pulmonary arterial hypertension rat model; format: in vivo, Sprague-Dawley rats
Method: Briefly, 10 week old male Sprague-Dawley rats were injected i.p. with 20 mg/kg of SU5416 (Sigma), placed in normobaric hypoxia (10% O2) for 3 weeks and then transferred to normoxia for 2 weeks. During hypoxic exposure, chambers were opened twice a week for cleaning and replenishment of food and water. […] For BRD2889 vs. vehicle control dosing, i.p. injections every 5 days (5 mg/kg) were administered during the final two weeks of normoxia. Oxygen concentrations were continuously monitored with blood gas analyzers.
Following euthanasia, right ventricle/[left ventricle+septum]
Measurement of GST activity: The GST activity from lung tissue and PAECs was assayed using GST assay kit (Cayman, MI, USA) per the manufacturer's instructions.
Rodent echocardiography: Echocardiography was performed using a 15-45 MHz transthoracic transducer and a Visual Sonics Vevo 3100 system (Fujifilm). Inhaled isoflurane anesthesia was used at 2% in 100% O2 during positioning and hair removal and then decreased to isoflurane 0.8% during imaging.

[2] = tested on: ISCU; assay: Immunoblot of ISCU and GSTP1 in PAECs; format: cell-based, human
Method: For hypoxia exposure, cells were plated in 6-well cell culture plates at 1×10^5 cells/well, grown for 24 hr and placed into a normobaric hypoxia chamber (1% O2) for 24 h under specific treatment conditions. Namely, for I-BET and siLGALS8 exposures, cells were either pre-treated with I-BET/vehicle control (VC) or transfected with siLgals8/Scr for 24 h. Then, they were cultured in basal media at 1% 02. After 24 h, caspase activity and mitochondrial superoxide levels were quantified. To detect activation status of pSTAT1/STAT1 by immunoblot, cells were exposed to 8 h of hypoxia.
(§1) In IL-6/sIL-6R+hypoxia experiments, a human recombinant IL-6/IL-6R alpha protein chimera (25 ng/ml, Millipore) was administered at 70-80% confluency for 48 h in complete media along with vehicle control (DMSO, Sigma-41639). BRD2889 (1 uM) vs. vehicle control were added, as indicated, and placed into a hypoxia chamber for 24 h. The hypoxia chamber (modular incubator chamber) was obtained from Billups-Rothenberg Inc. (Del Mar, Calif) and placed in regulated CO2 incubator at 37° C.
Protein stability assay: The proteasome inhibitor MG132 (M7449, Sigma) was stored at −20° C. at a concentration of 10 mM diluted in dimethyl sulfoxide (DMSO). PAECs were exposed to MG132 ([…]) vs. DMSO vehicle control for 2 hr under hypoxia, prior to harvesting of cellular lysate for immunoblotting.
(§2) Immunoblot and densitometry: Cells were lysed in RIPA buffer (Sigma) along with 1× protease inhibitor cocktail (Sigma). Protein lysate was resolved by gradient 4%-15% SDS-PAGE gels and transferred onto a 0.2 μm PVDF membrane (Bio-Rad). Membranes were blocked in 5% non-fat milk in 1×PBST buffer for one hour at room temperature. Later, they were incubated in the presence of the primary antibody overnight at 4° C. and then appropriate HRP-conjugated secondary antibodies (Life Technologies). The following antibodies were used: human LGALS8 (AF1305, RnD Systems), mouse/rat Lgals8 (ab69631, Abcam), pSTAT1 (ab29045, Abcam) and STAT1 (ab47425, Abcam), GSTP1 (ab153949, Abcam), ISCU (14812-1-AP, Prointech), Glutathione (ab19534, Abcam), HIF2A (NB100-122, Novous), α-Tubulin (CP06, Millipore sigma), and ACTB (sc-47778, Santa Cruz). The immunoreactive bands were visualized with the Chemidoc XRS+system (Bio-Rad) using SuperSignal West Femto chemiluminescent substrates (Thermo Fisher Scientific). The images were later quantified using AlphaEaseFC software (Alpha Innotech).

[3] = tested on: mitochondrial Complex I; assay: Mitochondrial Complex I activity in PAECs; format: cell-based, human
[4] = tested on: C43 genes (ISCU, mTOR); EDN1, VCAM1, ICAM1; assay: RT-qPCR of Cluster 43 and proinflammatory genes in PAECs; format: cell-based, human
Method: as §1, with “BRD2889 (1 uM) vs. vehicle control were added, as indicated, and placed into a hypoxia chamber for 24 h.” left out
RT-qPCR analysis: Cells were lysis in 1 ml of QiaZol reagent (Qiagen). Total RNA content was extracted using the RNeasy kit (Qiagen), according to the manufacturer's instructions. Total RNA concentration was determined using a BioTek Synergy multimode plate reader. Messenger RNAs were reverse transcribed to generate cDNA using the Multiscript RT kit (Thermo Fisher Scientific). cDNA for specific gene targets was amplified and quantified via fluorescently-labeled Taqman primer sets and Taqman fast advanced master mix (Thermo Fisher Scientific) using an Applied Biosystems QuantStudio 6 Flex Real-Time PCR System.

[5] = tested on: ISCU; assay: Immunoblot of ISCU and GSTP1 in PASMCs; format: cell-based, human; settings: BRD2889 1 uM
Method: as §1
as §2, with “The immunoreactive bands were visualized with the Chemidoc XRS+system (Bio-Rad) using SuperSignal West Femto chemiluminescent substrates (Thermo Fisher Scientific).” left out

[6] = tested on: GST activity; assay: GST activity in PASMCs; format: cell-based, human; settings: IL-6/R + hypoxia, BRD2889 1 uM
Method: as §1

[7] = tested on: PASMCs; assay: Apoptosis (caspase 3/7) in PASMCs; format: cell-based, human; settings: IL-6/sIL-6R + hypoxia
Method: as §1
Cellular apoptosis: Caspase-3/7 activity was quantified using the Caspase-Glo 3/7 Assay (Promega), according to manufacturer's instructions. Caspase-3/7 activity was normalized to total protein content determined by BCA method (Thermo Fisher Scientific).

[8] = BRD2889 5 mg/kg i.p. every 5 days

COc1ccc(C#CC2CCCN(C(=O)/C=C/c3cc(OC)c(OC)c(OC)c3)C2=O)cc1 (centres unmarked) [BRD2889]
Fulton index (RV/LV+S) [1, 8]: reduced
ISCU in CD31+ endothelium [1, 8]: increased
arteriolar muscularization [1, 8]: reduced
cleaved caspase-3 (CC-3) in CD31+ endothelium [1, 8]: decreased
right ventricular systolic pressure (RVSP) [1, 8]: reduced
lung GST activity ([1]; BRD2889 5 mg/kg i.p. every 5 days, final 2 weeks in normoxia): decreased
left ventricular function (LVPW thickness, LVEF, LVFS) ([1]; BRD2889 vs vehicle): did not exhibit altered left ventricular function
ascites ([1]; three SU5416-hypoxic rats treated with drug): accumulation of mild ascites
GSTP1 expression ([2]; PAECs, IL-6/R + hypoxia): without altering
ISCU expression (immunoblot) ([2]; PAECs, IL-6/sIL-6R + hypoxia, BRD2889 1 uM): reversed the decrease
GSTP1 expression ([2]; hypoxic PAECs): did not affect
ISCU protein levels ([2]; hypoxic PAECs): reversed hypoxia-dependent reduction
mitochondrial Complex I activity ([3]; PAECs, IL-6/sIL-6R + hypoxia): partially rescued
iron-sulfur-dependent mitochondrial Complex I activity ([3]; hypoxic PAECs): reversed the decrease
hypoxia-induced decrease in mitochondrial Complex I activity ([3]; hypoxic PAECs with siRNA knockdown of ISCU): did not reverse
inflammatory gene transcripts (EDN1, VCAM1, ICAM1) ([4]; IL-6/sIL-6R + hypoxia): normalized this upregulation
C43 genes MID2, BANP, AGTRAP transcripts ([4]; hypoxia 48 hrs, BRD2889 5 uM): unaffected in hypoxia
ISCU transcript (RT-qPCR) ([4]; hypoxia 48 hrs, BRD2889 5 uM): fully reversing the hypoxic decrease
mTOR transcript (RT-qPCR) ([4]; hypoxia 48 hrs, BRD2889 5 uM): partially reversing the decrease
GSTP1 protein expression ([5]; IL-6/R + hypoxia): did not affect
ISCU protein ([5]; IL-6/sIL-6R + hypoxia): failed to rescue
GST activity [6]: did not affect
apoptosis [7]: only subtly changed
